# ChEMBL document CHEMBL1201862, “PubChem BioAssay data set” (2004)
#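 Grown in 96-well plates, cells were treated for 48 hours with each compound at five concentrations. Insufficient inhibition: endpoint recorded as highest concentration tested. GI50 marks 50% less growth.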 Calls of active or inactive are those of the source. No stated cut-off is given here; in the data, active = GI50 up to about 1.1 µM and inactive = higher.
# What was measured:
# Test in all cases: DTP human tumour cell line panel, 48 h
# SF-539 = test system: SF-539
# SK-MEL-28 = test system: SK-MEL-28
# MCF7 = test system: MCF7
# SW-620 = test system: SW-620
# NCI-H23 = test system: NCI-H23
# OVCAR-8 = test system: OVCAR-8
# OVCAR-5 = test system: OVCAR-5
# A498 = test system: A498
# T47D = test system: T47D
# NCI-H226 = test system: NCI-H226
# CCRF-CEM = test system: CCRF-CEM
# HT-29 = test system: HT-29
# PC-3 = test system: PC-3
# UO-31 = test system: UO-31
# HOP-62 = test system: HOP-62
# LOX IMVI = test system: LOX IMVI
# Malme-3M = test system: Malme-3M
# 786-0 = test system: 786-0
# U-251 = test system: U-251
# DU-145 = test system: DU-145
Compound,GI50 (SF-539),GI50 (SK-MEL-28),GI50 (MCF7),GI50 (SW-620),GI50 (NCI-H23),GI50 (OVCAR-8),GI50 (OVCAR-5),GI50 (A498),GI50 (T47D),GI50 (NCI-H226),GI50 (CCRF-CEM),GI50 (HT-29),GI50 (PC-3),GI50 (UO-31),GI50 (HOP-62),GI50 (LOX IMVI),GI50 (Malme-3M),GI50 (786-0),GI50 (U-251),GI50 (DU-145)
N=C(N)SCCON1C(=O)c2ccccc2C1=O,> 100 µM (inactive),> 100 µM (inactive),> 100 µM (inactive),> 100 µM (inactive),> 100 µM (inactive),> 100 µM (inactive),> 100 µM (inactive),> 100 µM (inactive),> 100 µM (inactive),> 100 µM (inactive),> 100 µM (inactive),> 100 µM (inactive),> 100 µM (inactive),> 100 µM (inactive),> 100 µM (inactive),> 100 µM (inactive),> 100 µM (inactive),> 100 µM (inactive),> 100 µM (inactive),> 100 µM (inactive)
CC1=C(OC2OC(CO)C(O)C(O)C2O)C(=O)C[C@H]2C1=CC[C@@H]1[C@@]2(C)C(=O)C[C@]2(C)[C@@H]([C@@](C)(O)C(=O)CCC(C)(C)O)[C@H](O)C[C@@]12C (stereo not given in full),> 100 µM (inactive),> 100 µM (inactive),> 100 µM (inactive),> 100 µM (inactive),> 100 µM (inactive),> 100 µM (inactive),> 100 µM (inactive),> 100 µM (inactive),> 100 µM (inactive),> 100 µM (inactive),> 100 µM (inactive),> 100 µM (inactive),> 100 µM (inactive),> 100 µM (inactive),> 100 µM (inactive),> 100 µM (inactive),> 100 µM (inactive),> 100 µM (inactive),> 100 µM (inactive),> 100 µM (inactive)
O=[N+]([O-])c1cc(C(F)(F)F)cc2n[se]nc12,3.89 µM (inactive),2.22 µM (inactive),1.97 µM (inactive),1.45 µM (inactive),3.93 µM (inactive),1.97 µM (inactive),13.1 µM (inactive),16.8 µM (inactive),3.17 µM (inactive),20.6 µM (inactive),1.68 µM (inactive),7.29 µM (inactive),4 µM (inactive),5.53 µM (inactive),15.7 µM (inactive),5.53 µM (inactive),1.79 µM (inactive),2.21 µM (inactive),15.1 µM (inactive),3.21 µM (inactive)
Cc1ccc2nc(Cl)c(/C=N/N3C(=O)/C(=C/Cc4ccco4)N=C3c3ccccc3)cc2c1,43.6 µM (inactive),58.7 µM (inactive),40.3 µM (inactive),58.1 µM (inactive),> 49.2 µM (inactive),34.4 µM (inactive),> 74.6 µM (inactive),5.06 µM (inactive),> 50 µM (inactive),> 54.6 µM (inactive),> 100 µM (inactive),32.7 µM (inactive),61.4 µM (inactive),23.7 µM (inactive),62.2 µM (inactive),27.4 µM (inactive),63.5 µM (inactive),20.4 µM (inactive),50.8 µM (inactive),36.6 µM (inactive)
CCCCCCCCCCCCCCCCCCNc1ccn(C2OC(COP(=O)(O)OC3CC(n4cc(F)c(=O)[nH]c4=O)OC3COP(=O)(O)OCC3OC(n4ccc(N)nc4=O)C(O)C3O)C(O)C2O)c(=O)n1 (stereo not given),< 0.01 µM (active),24.7 µM (inactive),0.276 µM (active),16.2 µM (inactive),2.92 µM (inactive),3.1 µM (inactive),36.5 µM (inactive),20.8 µM (inactive),24.5 µM (inactive),> 24 µM (inactive),0.0206 µM (active),13.7 µM (inactive),7.14 µM (inactive),11.5 µM (inactive),10.4 µM (inactive),0.139 µM (active),> 46.9 µM (inactive),1.31 µM (inactive),7.67 µM (inactive),1.08 µM (active)
CC(NC(=O)OCc1ccccc1)NC(=O)C(CC(=O)OC(C)(C)C)NC(=O)OC(C)(C)C (stereo not given),> 100 µM (inactive),> 100 µM (inactive),> 100 µM (inactive),> 100 µM (inactive),> 100 µM (inactive),> 100 µM (inactive),> 100 µM (inactive),> 100 µM (inactive),> 100 µM (inactive),> 100 µM (inactive),> 100 µM (inactive),> 100 µM (inactive),> 100 µM (inactive),> 100 µM (inactive),> 100 µM (inactive),> 100 µM (inactive),> 100 µM (inactive),> 100 µM (inactive),> 100 µM (inactive),> 100 µM (inactive)
c1ccc2c(c1)OC(N1CCCC1)c1cnc(N3CCCC3)nc1-2 (stereo not given),68.1 µM (inactive),79.6 µM (inactive),18.6 µM (inactive),36.3 µM (inactive),37 µM (inactive),51.3 µM (inactive),76 µM (inactive),26.5 µM (inactive),22.5 µM (inactive),54.2 µM (inactive),23.8 µM (inactive),36.2 µM (inactive),28.7 µM (inactive),24.3 µM (inactive),68.2 µM (inactive),45.9 µM (inactive),40.7 µM (inactive),40.3 µM (inactive),45.9 µM (inactive),49.9 µM (inactive)
